Test results reported in the NIST ThermoML archive (doi:10.1016/j.jct.2016.03.028).
± gives the expanded uncertainty stated by the source.

Legend:
[1] = xn = mol fraction of the nth substance listed; conditions: Liquid; for speed of sound: 100 kPa, Frequency=3 MHz, Sing-around technique in a fixed-path interferometer; for mass density: 101.3 kPa, Vibrating tube method
[2] = refractive index (Na D-line) (dimensionless); xn = mol fraction of the nth substance listed; conditions: 100 kPa, Liquid, Standard Abbe refractometry

CCCOCCO [2-propoxyethanol] + CCOS(=O)(=O)[O-].CCn1cc[n+](C)c1
Conditions | mass density, [1] [kg/m3] | refractive index, [2] | speed of sound, [1] [m/s]
298.15 K, x2 = 0 | 908.31 ± 2 | 1.41255 ± 0.002 | 1299.9 ± 1.5
298.15 K, x2 = 0.0496 | 936.15 ± 2 | 1.41807 ± 0.002 | 1322.2 ± 1.6
298.15 K, x2 = 0.0901 | 957.3 ± 2 | 1.42234 ± 0.002 | 1339.6 ± 1.6
298.15 K, x2 = 0.1345 | 979.08 ± 2 | 1.42679 ± 0.002 | 1358 ± 1.6
298.15 K, x2 = 0.1738 | 997.17 ± 2 | 1.43052 ± 0.002 | 1374 ± 1.6
298.15 K, x2 = 0.2568 | 1032.34 ± 2 | 1.43781 ± 0.002 | 1407.7 ± 1.6
298.15 K, x2 = 0.3477 | 1066.65 ± 2 | 1.44491 ± 0.002 | 1444.5 ± 1.6
298.15 K, x2 = 0.4406 | 1097.96 ± 2 | 1.45131 ± 0.002 | 1482.1 ± 1.6
298.15 K, x2 = 0.5477 | 1130.29 ± 2 | 1.45778 ± 0.002 | 1525.4 ± 1.6
298.15 K, x2 = 0.6478 | 1157.57 ± 2 | 1.46309 ± 0.002 | 1565.2 ± 1.6
298.15 K, x2 = 0.7729 | 1188.39 ± 2 | 1.46902 ± 0.002 | 1612.3 ± 1.6
298.15 K, x2 = 0.8263 | 1200.6 ± 2 | 1.4714 ± 0.002 | 1630.9 ± 1.6
298.15 K, x2 = 0.8757 | 1211.4 ± 2 | 1.47357 ± 0.002 | 1647 ± 1.6
298.15 K, x2 = 0.9346 | 1223.63 ± 2 | 1.47615 ± 0.002 | 1664.4 ± 1.6
308.15 K, x2 = 0 | 899.5 ± 2 | 1.40814 ± 0.002 | 1265 ± 1.5
308.15 K, x2 = 0.0496 | 927.63 ± 2 | 1.41391 ± 0.002 | 1288.6 ± 1.5
308.15 K, x2 = 0.0901 | 948.98 ± 2 | 1.41835 ± 0.002 | 1306.8 ± 1.6
308.15 K, x2 = 0.1345 | 970.94 ± 2 | 1.42296 ± 0.002 | 1326.1 ± 1.6
308.15 K, x2 = 0.1738 | 989.17 ± 2 | 1.42682 ± 0.002 | 1342.8 ± 1.6
308.15 K, x2 = 0.2568 | 1024.6 ± 2 | 1.43433 ± 0.002 | 1377.8 ± 1.6
308.15 K, x2 = 0.3477 | 1059.1 ± 2 | 1.44162 ± 0.002 | 1415.6 ± 1.6
308.15 K, x2 = 0.4406 | 1090.57 ± 2 | 1.44817 ± 0.002 | 1454.2 ± 1.6
308.15 K, x2 = 0.5477 | 1123.06 ± 2 | 1.45477 ± 0.002 | 1498.4 ± 1.6
308.15 K, x2 = 0.6478 | 1150.45 ± 2 | 1.4602 ± 0.002 | 1539 ± 1.6
308.15 K, x2 = 0.7729 | 1181.41 ± 2 | 1.46625 ± 0.002 | 1587 ± 1.6
308.15 K, x2 = 0.8263 | 1193.67 ± 2 | 1.46868 ± 0.002 | 1606 ± 1.6
308.15 K, x2 = 0.8757 | 1204.51 ± 2 | 1.47089 ± 0.002 | 1622.3 ± 1.6
308.15 K, x2 = 0.9346 | 1216.76 ± 2 | 1.4735 ± 0.002 | 1639.9 ± 1.6
318.15 K, x2 = 0 | 890.56 ± 2 | 1.40355 ± 0.002 | 1230.1 ± 1.5
318.15 K, x2 = 0.0496 | 919 ± 2 | 1.40953 ± 0.002 | 1254.9 ± 1.5
318.15 K, x2 = 0.0901 | 940.58 ± 2 | 1.41413 ± 0.002 | 1274 ± 1.5
318.15 K, x2 = 0.1345 | 962.75 ± 2 | 1.41891 ± 0.002 | 1294.2 ± 1.5
318.15 K, x2 = 0.1738 | 981.14 ± 2 | 1.4229 ± 0.002 | 1311.6 ± 1.6
318.15 K, x2 = 0.2568 | 1016.84 ± 2 | 1.43065 ± 0.002 | 1347.8 ± 1.6
318.15 K, x2 = 0.3477 | 1051.57 ± 2 | 1.43817 ± 0.002 | 1386.9 ± 1.6
318.15 K, x2 = 0.4406 | 1083.21 ± 2 | 1.44492 ± 0.002 | 1426.5 ± 1.6
318.15 K, x2 = 0.5477 | 1115.85 ± 2 | 1.45172 ± 0.002 | 1471.8 ± 1.6
318.15 K, x2 = 0.6478 | 1143.37 ± 2 | 1.45729 ± 0.002 | 1513.2 ± 1.6
318.15 K, x2 = 0.7729 | 1174.46 ± 2 | 1.46348 ± 0.002 | 1562 ± 1.6
318.15 K, x2 = 0.8263 | 1186.78 ± 2 | 1.46595 ± 0.002 | 1581.3 ± 1.6
318.15 K, x2 = 0.8757 | 1197.67 ± 2 | 1.46818 ± 0.002 | 1597.9 ± 1.6
318.15 K, x2 = 0.9346 | 1209.98 ± 2 | 1.47081 ± 0.002 | 1615.7 ± 1.6
328.15 K, x2 = 0 | 881.49 ± 2 | 1.39908 ± 0.002 | 1195.8 ± 1.5
328.15 K, x2 = 0.0496 | 910.28 ± 2 | 1.4053 ± 0.002 | 1221.5 ± 1.5
328.15 K, x2 = 0.0901 | 932.1 ± 2 | 1.41007 ± 0.002 | 1241.4 ± 1.5
328.15 K, x2 = 0.1345 | 954.51 ± 2 | 1.41501 ± 0.002 | 1262.4 ± 1.5
328.15 K, x2 = 0.1738 | 973.08 ± 2 | 1.41912 ± 0.002 | 1280.5 ± 1.5
328.15 K, x2 = 0.2568 | 1009.08 ± 2 | 1.42711 ± 0.002 | 1318.1 ± 1.6
328.15 K, x2 = 0.3477 | 1044.05 ± 2 | 1.43483 ± 0.002 | 1358.5 ± 1.6
328.15 K, x2 = 0.4406 | 1075.88 ± 2 | 1.44175 ± 0.002 | 1399.3 ± 1.6
328.15 K, x2 = 0.5477 | 1108.69 ± 2 | 1.4487 ± 0.002 | 1445.6 ± 1.6
328.15 K, x2 = 0.6478 | 1136.34 ± 2 | 1.45439 ± 0.002 | 1487.8 ± 1.6
328.15 K, x2 = 0.7729 | 1167.58 ± 2 | 1.46071 ± 0.002 | 1537.5 ± 1.6
328.15 K, x2 = 0.8263 | 1179.94 ± 2 | 1.46322 ± 0.002 | 1557 ± 1.6
328.15 K, x2 = 0.8757 | 1190.88 ± 2 | 1.46549 ± 0.002 | 1573.9 ± 1.6
328.15 K, x2 = 0.9346 | 1203.26 ± 2 | 1.46815 ± 0.002 | 1591.9 ± 1.6
